The text below walks through data of patent publication US8461299B2, “Peptide capable of binding to immunoglobulin” (MMT Co., Ltd., priority 2007, dated 2013).

Assay [1] has as its system binding between human C1q protein and alkaline phosphatase (ALP)-labeled human immunoglobulin (IgG). Put plainly: Inhibition of the binding between an immunoglobulin and C1q (C1q spotted on nitrocellulose membrane, ALP-labeled IgG detection). The conditions noted are these: peptide 500 μg/ml; 400 ng human C1q per spot; ALP-labeled human IgG diluted 1000-fold; room temperature, one hour. The text has this:
It was investigated whether or not the 9 residue-peptide CKVPGLYYF (SEQ ID NO: 2) considered to be necessary for the binding between C1q and an immunoglobulin (IgG) inhibits the binding between C1q and an immunoglobulin. Peptide (R2) having the amino acid sequence of SEQ ID NO: 2, peptide (R1) having a shorter amino acid sequence than this peptide, PGLYYF (SEQ ID NO: 1), as well as peptide (R3) having the amino acid sequence SGKFTCKVPGLYYFT (SEQ ID NO: 3), peptide (R4) having the amino acid sequence FTCKVPGLYYFTYHA (SEQ ID NO: 4), peptide (R5) having the amino acid sequence STGKFTCKVPGLYYF (SEQ ID NO: 5), and peptide (R6) having the amino acid sequence CKVPGLYYFVYHASH (SEQ ID NO: 7), which contain the amino acid sequence indicated by SEQ ID NO: 2, were prepared by outsourcing to GL Biochem (Shanghai). Each peptide was dissolved in dimethylsulfoxide so as to reach a concentration of 10 mg/ml and stored.
Human C1q protein (manufactured by Carbiochem) was dissolved in 10 mM HEPES, 300 mM NaCl and 40% glycerol (pH 7.2) to prepare a 200 μg/ml human C1q protein solution.
The human C1q protein solution was spotted at 2 μl (400 ng) each onto a 5 mm×15 mm size nitrocellulose membrane (Hybond C; manufactured by Amersham), which was air-dried at room temperature for approximately one hour. The nitrocellulose membrane was soaked in TBS, incubated for 5 minutes, and blocked at room temperature for one hour using TBS (20 mM Tris-HCl pH 7.5, 150 mM NaCl) containing 5% blocking agent (Amersham ECL blocking reagent; manufactured by GE Healthcare). After a slight wash in TBS, the membrane was soaked in 20 μl of a mixed solution of alkaline phosphatase (ALP)-labeled human immunoglobulin (IgG) (manufactured by BECKMAN COULTER) diluted 1000-fold in TBS and each peptide so as to reach a concentration of 500 μg/ml, and let it react at room temperature for one hour. After a slight wash in TTBS solution (TBS added with Tween 20 to a final concentration of 0.05%), the membrane was washed in the same solution for 10 minutes, shaking three times.
After the nitrocellulose membrane was washed slightly in ALP coloring buffer (Tris-HCl containing 100 mM NaCl, 5 mM MgCl2, pH 9.5), it was soaked in 30 μl ALP coloring buffer containing BCIP/NBT solution (manufactured by Promega), and colored at room temperature for 10 minutes. Upon obtaining a staining image, the nitrocellulose membrane was soaked in a sufficient amount of distilled water to wash away the coloring buffer. After washing the nitrocellulose membrane was air-dried and the staining image was captured using Multi Gauge (FUJIFILM). […]

Assay [2] deals with monoclonal antibody cocktail-induced arthritis mice. Kind of assay: Arthritis inhibitory action on an arthritis-induced mouse-2 (clinical score, general state, body weight). As to conditions: 10 mg/kg intraperitoneally twice daily from day 0 for 14 days. It is filed as in vivo. The protocol:
The arthritis inhibitory action of the peptides indicated in Example 2 as R1, R2 and R5 was examined using monoclonal antibody cocktail-induced arthritis mice. An arthritis-inducing monoclonal antibody cocktail was intravenously administered at 2 mg/individual, and three days later, LPS was intraperitoneally administered at 50 μg/individual to the mice to induce arthritis. For each peptide, from the day the arthritis-inducing monoclonal antibody cocktail was administered (day 0), continuous administration was carried out at 10 mg/kg each, twice daily, for 14 days, and the arthritis inhibitory action was examined by clinical scoring. Note that the experiments were carried out by similar methods to Example 3 (1).
Based on the animal body weight, the required amount of each peptide was calculated. A solution was prepared with a 0.5% methyl cellulose solution so as to reach a concentration of 1 mg/ml, and was stored refrigerated.
With the day the arthritis-inducing monoclonal antibody cocktail was administered as day 0, the animal's body weight was measured on day 0, 3, 6, 9, 12 and 14 during the test period. General state observation was carried out daily.
The body weight was measured on the day prior to starting administration and randomly assigned with a grouping software so that the average body weight value of each group was approximately the equal. To twenty 7 week-old mice, an arthritis-inducing monoclonal antibody cocktail were intravenously administered at 2 mg/individual on day 0, and LPS was intraperitoneally administered at 50 μg/individual on day 3.
Each peptide solution was intraperitoneally administered twice daily, in the morning and in the afternoon, from day 0. As a control, 0.5% methyl cellulose solution was intraperitoneally administered twice daily from day 0. For administration, a syringe needle (26G, Terumo) and a syringe barrel (1.0 ml capacity, Terumo) were used. The dosage was 10 ml/kg. […]

Assay [3] relates to Type III allergic (Arthus) reaction-induced rat. Kind of assay: Type III allergic (Arthus) reaction model, Evans blue dye leakage. The class given is in vivo. The procedure:
The test for peptide R1, R2 and R5 using 64 male rats of the Slc:Wistar strain, which were 7 weeks old was carried out in twice, i.e. for each administration method (intraperitoneal administration and tail vein administration). Acclimation was carried out by giving normal solid chow CRF-1 for 9 days or longer. The day prior to administration, the dorsal hair of the animal was shaved, and on the administration day, a solution of OVA+Evans blue dye mix was administered into the tail vein. Each peptide solution was administered, 30 minutes after administration of a solution of OVA+Evans blue dye mix if administered intraperitoneally or 50 minutes after if administered into the tail vein, respectively. Regarding intracutaneous administration of anti-OVA solution, the solution was intradermally administered to the dorsal region of the animal at a dose of 0.1 ml/site, 30 minutes after administration of the test substance in case of intraperitoneal administration or 10 minutes after in case of intravenous administration, to induce locally an Arthus reaction. Four hours after the induction, the animals were euthanized, the blood was removed thoroughly, and then the dorsal skin was removed. The Arthus reaction site on the removed skin was punched out, and the Evans blue dye was extracted from this skin overnight. The amount of dye leaked was quantified by measuring the absorbance for Evans blue dye with a spectrophotometer and using a calibration curve (note that, regarding experimental methods used in Example 4, reference should be made to H. Okamoto, Y. Iwahisa and M. Terasawa: Suppression of the Arthus reaction by Y-24180, a potent and specific antagonist of platelet-activating factor. Agents Actions, 35: 149-158 (1992)).
The predetermined weighed amounts of each peptide (peptides R1, R2 and R5) were dissolved in physiological saline respectively to obtain a 20 mg/ml solution. A 2 mg/ml solution was prepared by diluting 10-fold a 20 mg/mL solutions with physiological saline. 5 mg/ml solutions were prepared by dissolving each peptide in predetermined weighed amounts in physiological saline to obtain preparation solutions.
A solution of OVA+Evans blue dye mix was administered into the tail vein at 2 ml/kg. Each peptide solution was administered, 30 minutes after administration of the solution of OVA+Evans blue dye mix if administered intraperitoneally or 50 minutes after if administered into the tail vein, respectively. Regarding intracutaneous administration of anti-OVA solution, the solution was intradermally administered to the dorsal region of the animal at a dose of 0.1 ml/site, 30 minutes after administration of the test substance in case of intraperitoneal administration or 10 minutes after in case of intravenous administration, to induce locally an Arthus reaction. Intracutaneous administration was such that there were two PBS sites and two ant-OVA solution sites per animal. Four hours after the induction, the animals were euthanized by decapitation under ether anesthesia, the blood was removed thoroughly, and then the dorsal skin was removed. […]
The skin strip that was punched out with a punch was slit at several locations, soaked in 2 ml of dye extraction solution, and shaken and agitated for 10 minutes. […] The amount of dye leaked was calculated from the dye amount calibration curve.
The group mean values (mean)±standard deviation (SD) were calculated for the body weight measurement values and the amounts of dye leaked. […]

For assay [4], the system named is monoclonal antibody cocktail-induced arthritis mice (BALB/c Cr Slc (SPF)). Put plainly: Arthritis inhibitory action on an arthritis-induced mouse-1 (clinical score). It is filed as in vivo. The procedure: Using monoclonal antibody cocktail-induced arthritis mice (BALB/c Cr Slc (SPF)), the arthritis inhibitory action of the peptide indicated as R5 in Example 2 was examined. Arthritis was induced by intravenous administration of 2 mg/individual of an arthritis-inducing monoclonal antibody cocktail, followed by intraperitoneal administration of 50 μg/individual of Lipopolysaccharide (LPS) three days later. From the day following LPS administration (day 4) until day 14, 10 mg/kg of peptide. R5 was intraperitoneally administered once daily or twice daily. The positive control agent methotrexate was orally administered once daily at 0.1 mg/kg from day 4. The clinical score of the extremities was measured on even days from day 0 to day 14. Under anesthesia, blood was removed with heparin-containing physiological saline, ice-cold 4% paraformaldehyde solution was continuously injected to perfusion-fix the whole body. After perfusion-fixation subsequent, both hind limbs knee joints (the center of the femur and the center of the tibia were cut; skin and muscles were removed) and heel joints (from the center of the tibia to the toe tips) were excised and further immersion-fixed with 4% paraformaldehyde solution overnight (4° C.). Thereafter, both knee and heel joints were transferred to 50 mM PBS (4° C.), then soft x-ray radiography of the heel articulations were taken from two directions (internal side direction and upper side direction).
Based on the animal body weight, the required amount was calculated for the peptide. A peptide solution was prepared with a 0.5% methyl cellulose solution so as to reach a concentration of 1 mg/ml, and the prepared peptide solution was stored refrigerated. […]
With the day the arthritis-inducing monoclonal antibody cocktail was administered as day 0, the animal's body weight was measured on day 0, 3, 6, 9, 12 and 14 during the test period. […]

[5] abbreviates: intraperitoneal administration, 10 mg/kg or 100 mg/kg.
The mark [6] stands for this setting: tail vein administration, 10 mg/kg.

On to “STAKFTCKVPGLYYF (Immunoglobulin binding peptide) [R11]”, for which, in assay [1], the “inhibition of the binding between C1q and an immunoglobulin (IgG)” value (“inhibition … (IgG)” for short) is “inhibit”.

As for “STGKFTCKVPGLYYF (Immunoglobulin binding peptide) [R5]”, the “arthritis inhibitory action (clinical score)” value (“arthritis inhibitory action” for short) in assay [2] is listed as “Arthritis inhibitory action was observed”. Further, the “inhibitory action on immune-complex disease (amount of dye leaked)” value (from here on “inhibitory action … (amount of dye leaked)”) in assay [3] (setting [5]) was “clear and sufficient inhibitory action”. The “arthritis inhibition (clinical score)” value in assay [4] (10 mg/kg intraperitoneally once daily or twice daily, day 4 until day 14) is “an effect on arthritis inhibition was observed”. Further, the “difference in effectiveness between once daily administration and twice daily administration” value in assay [4] (10 mg/kg intraperitoneally, day 4 until day 14) is recorded as “no significant difference”. Moreover, the “level of arthritis inhibition compared with methotrexate” value in assay [4] (peptide 10 mg/kg intraperitoneally, methotrexate 0.1 mg/kg orally once daily from day 4) is on record as “higher than that of methotrexate”.

For “PGLYYF (Immunoglobulin binding peptide) [R1]”, the “arthritis inhibitory action” value in assay [2] is “Arthritis inhibitory action was observed”. For the same substance, the “inhibitory action … (amount of dye leaked)” value in assay [3] (setting [5]) was “clear and sufficient inhibitory action”; in assay [3] (setting [6]), “clear and sufficient inhibitory action”. The “inhibition … (IgG)” value in assay [1] is given as “inhibited”.

Regarding “CKAPGLYYF (Immunoglobulin binding peptide) [R10]”, in assay [1], the “inhibition … (IgG)” value is listed as “inhibit”.

“CKVPGLYYF (Immunoglobulin binding peptide) [R2]”: the “arthritis inhibitory action” value in assay [2] was “Arthritis inhibitory action was observed”. Also, the “inhibitory action … (amount of dye leaked)” value in assay [3] (setting [5]) was “clear and sufficient inhibitory action”; in assay [3] (setting [6]), “clear and sufficient inhibitory action”. Also, the “inhibition … (IgG)” value in assay [1] is listed as “inhibited”.
